# Tests used:
# Crenolanib + Trametinib = compound: CC1(COc2ccc3c(c2)ncn3-c2ccc3cccc(N4CCC(N)CC4)c3n2)COC1 [Crenolanib] + CC(=O)Nc1cccc(-n2c(=O)n(C3CC3)c(=O)c3c(Nc4ccc(I)cc4F)n(C)c(=O)c(C)c32)c1 [Trametinib] (partner 0.02 µM); experiment: relative viability (nuclei count vs DMSO), 5 days (fraction); higher = more cells survive
# Method in brief: (§1)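 Medians of duplicate plates are given as relative viability. That measure is the nuclei count in treated wells divided by the count in vehicle wells. Counts were taken on 4× images of lung cancer cell lines in 1536-well plates, 5 days after pin-tool dosing the day after seeding with one drug alone or a fixed anchor-drug dose plus five library-drug doses (not always all listed) in √10 steps.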
# Tivantinib + Dasatinib = compound: O=C1NC(=O)[C@@H](c2cn3c4c(cccc24)CCC3)[C@@H]1c1c[nH]c2ccccc12 [Tivantinib] + Cc1nc(Nc2ncc(C(=O)Nc3c(C)cccc3Cl)s2)cc(N2CCN(CCO)CC2)n1 [Dasatinib] (partner 0.075 µM); experiment: as above
# Method in brief: as §1
Cell Line,relative viability (Crenolanib + Trametinib; first compound 0.01 µM),relative viability (Crenolanib + Trametinib; first compound 0.03162 µM),relative viability (Crenolanib + Trametinib; first compound 0.1 µM),relative viability (Crenolanib + Trametinib; first compound 0.3162 µM),relative viability (Crenolanib + Trametinib; first compound 1 µM),relative viability (Tivantinib + Dasatinib; first compound 0.01 µM),relative viability (Tivantinib + Dasatinib; first compound 0.03162 µM),relative viability (Tivantinib + Dasatinib; first compound 0.1 µM),relative viability (Tivantinib + Dasatinib; first compound 0.3162 µM)
HCC-78,0.826,0.862,0.682,0.756,0.657,0.416,0.376,0.378,0.377
HOP-62,0.43,0.372,0.368,0.379,0.37,0.711,0.521,0.606,0.739
NCI-H1623,–,–,–,–,–,0.464,0.424,0.494,–
NCI-H2405,0.698,–,0.483,0.621,0.57,0.213,0.213,0.218,0.169
PC-3 [JPC-3],0.758,–,0.632,0.623,0.585,0.962,1.02,0.988,0.585
NCI-H1666,0.887,0.824,0.857,0.985,0.83,0.765,0.785,0.77,0.742
HCC-15,0.4,0.394,0.379,0.402,0.38,0.609,0.591,0.587,0.639
NCI-H1651,0.864,0.835,0.783,0.825,0.847,0.386,0.354,0.391,0.475
NCI-H1395,1.05,1.03,0.976,1,1.14,0.396,0.339,0.437,0.434
EPLC-272H,0.307,0.299,0.283,0.326,0.277,0.409,0.343,0.293,0.176
LXF-289,0.665,0.638,0.689,0.7,0.718,0.302,0.261,0.19,0.175
NCI-H1437,0.677,0.572,0.487,0.521,0.602,0.427,0.334,0.429,0.376
HCC-827,0.595,0.529,0.505,0.473,0.6,0.237,0.295,0.375,0.131
NCI-H1650,0.715,0.534,0.521,0.747,0.575,0.41,0.289,0.276,0.313
HCC-366,0.367,0.374,0.3,0.422,0.345,0.629,0.594,0.495,0.681
EKVX,0.365,0.405,0.348,0.332,0.413,0.615,0.431,0.618,0.315
NCI-H2126,0.596,0.578,0.564,0.608,0.62,0.583,0.676,0.594,0.565
LK-2,0.987,0.747,0.859,0.899,0.727,0.281,–,0.341,0.301
NCI-H1563,–,–,–,–,–,0.453,0.443,0.514,0.399
COR-L23,0.58,0.53,0.418,0.606,0.552,0.498,0.542,0.48,0.5
ABC-1,–,–,–,–,–,0.629,0.742,0.566,0.516
SW 900,0.797,–,0.75,0.784,1.18,0.582,0.735,0.467,0.611
PC-14,0.91,0.619,0.679,0.716,0.647,0.29,0.27,0.234,0.0998
NCI-H1648,0.541,–,0.469,0.457,0.514,–,–,–,–
A-427,0.831,–,0.755,0.818,0.747,0.677,0.731,0.712,0.686

Cell Line,relative viability (Crenolanib + Trametinib; first compound 0.01 µM),relative viability (Crenolanib + Trametinib; first compound 0.03162 µM),relative viability (Crenolanib + Trametinib; first compound 0.1 µM),relative viability (Crenolanib + Trametinib; first compound 0.3162 µM),relative viability (Crenolanib + Trametinib; first compound 1 µM),relative viability (Tivantinib + Dasatinib; first compound 0.01 µM),relative viability (Tivantinib + Dasatinib; first compound 0.03162 µM),relative viability (Tivantinib + Dasatinib; first compound 0.1 µM),relative viability (Tivantinib + Dasatinib; first compound 0.3162 µM)
NCI-H1915,0.29,0.324,0.289,0.304,0.275,0.305,0.277,0.294,0.334
LOU-NH91,0.826,0.793,0.774,0.879,0.788,0.586,0.565,0.568,0.464
NCI-H1734,0.768,0.725,0.682,0.806,0.765,0.425,0.472,0.436,0.478
LCLC-97TM1,0.215,0.176,0.186,0.188,0.199,0.796,0.61,0.869,0.824
RERF-LC-KJ,0.882,0.855,0.896,0.901,0.926,0.873,0.895,0.757,0.585
BEN,1.14,1.06,1.09,0.998,1.15,0.293,0.308,0.382,0.359
LCLC-103H,0.686,0.643,0.651,0.692,0.667,0.424,0.428,0.429,0.436
SW 1573,0.661,0.607,0.55,0.726,0.579,0.717,0.481,0.453,0.548
ChaGo-K-1,0.877,0.895,0.868,0.916,0.846,0.584,0.604,0.612,0.564
COR-L 105,0.442,0.407,0.491,0.416,0.547,0.42,0.287,0.334,0.216
NCI-H1993,0.509,0.512,0.56,0.505,0.501,0.649,0.7,1.35,0.583
NCI-H2009,0.325,0.296,0.308,0.223,0.235,0.381,0.255,0.301,0.285
SK-LU-1,0.465,0.517,0.351,0.491,0.512,0.186,0.178,0.173,0.169
NCI-H2347,0.283,0.286,0.282,0.255,0.293,0.345,0.267,0.283,0.306
HCC-44,1.05,1.1,1.03,1.11,0.945,–,–,–,–
EMC-BAC-2,0.905,–,0.893,0.937,0.799,0.35,0.307,0.183,0.343
NCI-H3122,0.233,0.21,0.224,0.23,0.318,0.808,0.808,0.788,0.686
NCI-H358,0.169,0.11,0.166,0.133,0.112,0.128,0.165,0.143,0.109
NCI-H1944,0.426,0.414,0.375,0.454,0.406,0.219,0.196,0.211,0.208
NCI-H2342,0.502,0.822,0.935,0.887,0.904,0.31,0.296,0.322,0.31
H3255,0.646,0.612,0.639,0.754,0.627,0.35,0.38,0.361,–
NCI-H1975,0.344,0.316,0.313,0.304,0.359,0.357,0.372,0.276,0.281
NCI-H647,0.55,0.442,0.486,0.653,0.538,0.188,0.194,0.149,0.195
NCI-H441,0.537,0.479,0.425,0.485,0.408,0.801,0.555,0.356,0.433
NCI-H1355,0.488,0.381,0.405,0.547,0.37,0.666,0.668,0.675,0.564

Cell Line,relative viability (Crenolanib + Trametinib; first compound 0.01 µM),relative viability (Crenolanib + Trametinib; first compound 0.03162 µM),relative viability (Crenolanib + Trametinib; first compound 0.1 µM),relative viability (Crenolanib + Trametinib; first compound 0.3162 µM),relative viability (Crenolanib + Trametinib; first compound 1 µM),relative viability (Tivantinib + Dasatinib; first compound 0.01 µM),relative viability (Tivantinib + Dasatinib; first compound 0.03162 µM),relative viability (Tivantinib + Dasatinib; first compound 0.1 µM),relative viability (Tivantinib + Dasatinib; first compound 0.3162 µM)
NCI-H23,0.441,0.412,0.425,0.387,0.408,0.876,0.809,0.699,0.782
NCI-H522,0.766,0.615,0.841,0.631,0.638,0.902,0.712,0.831,0.864
LC-2-ad,1.05,0.901,0.916,0.97,0.894,0.554,0.527,0.641,0.477
NCI-H650,1.01,1.01,0.976,1.05,0.992,0.504,0.359,0.461,0.527
SK-MES-1,0.583,0.549,0.55,0.548,0.487,0.521,0.386,0.309,0.186
NCI-H2170,0.945,0.93,0.928,0.9,0.927,0.659,0.469,0.558,–
NCI-H2087,0.234,0.227,0.207,0.207,0.193,0.83,0.942,0.825,0.913
NCI-H838,0.564,0.501,0.489,0.53,0.439,0.324,0.296,0.274,0.276
NCI-H460,0.13,0.169,0.151,0.17,0.133,0.461,0.35,0.484,0.492
LU99A,0.527,0.499,0.514,0.618,0.541,0.533,0.64,0.527,0.402
NCI-H322M,0.515,0.516,0.488,0.525,0.609,0.25,0.234,0.273,–
NCI-H520,0.818,0.714,0.644,0.678,0.686,0.204,0.185,0.193,0.221
NCI-H661,0.57,0.55,0.528,0.603,0.494,0.884,0.869,0.736,0.4
NCI-H727,0.437,0.387,0.359,0.382,0.447,0.529,0.344,0.306,0.275
NCI-H1793,0.349,0.333,0.363,0.472,0.458,0.345,0.419,0.376,0.346
NCI-H1755,0.754,0.707,0.734,0.885,0.75,0.482,0.437,0.401,0.39
HARA,0.795,0.955,0.774,0.723,0.628,0.293,0.302,0.299,0.225
201T,0.703,0.703,0.688,0.722,0.745,0.562,0.566,0.547,0.554
NCI-H2228,0.442,0.544,0.342,0.551,0.5,–,0.484,0.539,0.352
CAL-12T,0.466,0.345,0.372,0.347,0.294,0.479,0.499,0.403,0.238
NCI-H596,0.823,0.842,0.753,0.729,0.75,0.486,0.543,0.635,0.619
NCI-H1792,0.422,0.545,0.399,0.485,0.347,0.902,0.714,0.675,0.481
NCI-H2085,–,0.571,0.549,0.51,0.554,0.331,0.244,0.239,0.209
NCI-H2023,0.549,0.556,0.53,0.594,0.494,0.678,0.564,0.506,0.521
